Laboratory results as given in ChEMBL document CHEMBL4033685, “C21-steroidal pregnane sapogenins and their derivatives as anti-inflammatory agents” (Bioorg Med Chem, 2017).
Calls of active or inactive are those of the source. No cut-off for these calls is given here.

Columns and labels:
[1] = test system: AD293; assay: Cytotoxicity against human AD293 cells assessed as reduction in cell viability at 10 uM after 24 hrs by methylene blue dye based spectrophotometric method; conditions: ad293, 24 h
[2] = biological target: T1, Toll-like receptor 4 (Homo sapiens, UniProt O00206); assay: Antagonist activity at TLR4 (unknown origin) expressed in human AD293 cells assessed as inhibition of LPS/ATP-stimulated TLR4/NF-kB signaling pathway at 10 uM after 16 hrs by luciferase reporter gene assay; assay type: cell-based
[3] = biological target: T1, Toll-like receptor 4; assay: Antagonist activity at TLR4 in human THP1 cells assessed as inhibition of LPS-stimulated IL-6 mRNA level at 10 uM after 16 hrs by RT-PCR method; assay type: cell-based
[4] = biological target: T1, Toll-like receptor 4; assay: Antagonist activity at TLR4 in human THP1 cells assessed as inhibition of LPS-stimulated RANTES mRNA level at 10 uM after 16 hrs by RT-PCR method; assay type: cell-based
[5] = biological target: T1, Toll-like receptor 4; assay: Antagonist activity at TLR4 (unknown origin) expressed in human AD293 cells assessed as inhibition of LPS/ATP-stimulated TLR4/NF-kB signaling pathway after 16 hrs by luciferase reporter gene assay; assay type: cell-based
[6] = organism: Homo sapiens; assay: Inhibition of TNFalpha-stimulated NF-kB signaling pathway (unknown origin) expressed in human AD293 cells after 4 hrs by luciferase reporter gene assay; assay type: cell-based
[7] = test system: AD293; assay: Cytotoxicity against human AD293 cells assessed as reduction in cell viability after 24 hrs by methylene blue dye based spectrophotometric method; conditions: ad293, 24 h

T1 sequence (O00206 whole entry): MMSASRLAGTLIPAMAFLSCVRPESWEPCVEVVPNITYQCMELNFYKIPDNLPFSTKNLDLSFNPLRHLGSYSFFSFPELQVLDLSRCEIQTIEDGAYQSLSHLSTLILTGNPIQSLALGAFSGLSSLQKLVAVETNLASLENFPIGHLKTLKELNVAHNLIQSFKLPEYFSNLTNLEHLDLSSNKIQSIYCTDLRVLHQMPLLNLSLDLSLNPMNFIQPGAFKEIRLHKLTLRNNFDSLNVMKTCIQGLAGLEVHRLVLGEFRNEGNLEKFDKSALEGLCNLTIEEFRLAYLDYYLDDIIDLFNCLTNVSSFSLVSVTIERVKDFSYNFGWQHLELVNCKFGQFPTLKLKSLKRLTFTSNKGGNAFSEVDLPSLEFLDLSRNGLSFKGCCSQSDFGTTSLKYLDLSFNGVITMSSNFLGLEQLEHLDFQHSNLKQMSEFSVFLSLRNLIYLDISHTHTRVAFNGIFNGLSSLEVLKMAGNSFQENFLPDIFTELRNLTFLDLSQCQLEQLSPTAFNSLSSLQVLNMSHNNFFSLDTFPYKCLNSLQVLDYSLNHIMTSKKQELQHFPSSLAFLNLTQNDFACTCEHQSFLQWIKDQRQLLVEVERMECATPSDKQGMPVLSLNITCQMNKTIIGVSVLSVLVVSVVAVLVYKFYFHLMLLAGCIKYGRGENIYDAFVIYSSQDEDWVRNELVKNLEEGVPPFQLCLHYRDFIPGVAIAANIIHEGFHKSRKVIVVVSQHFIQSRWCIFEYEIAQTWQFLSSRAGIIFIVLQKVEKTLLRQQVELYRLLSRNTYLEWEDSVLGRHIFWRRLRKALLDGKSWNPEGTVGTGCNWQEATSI

Structure (SMILES)	Activity [1]	inhibition [2]	further results
CC(=O)[C@]1(OC(=O)/C=C/c2ccc([N+](=O)[O-])cc2)CC[C@@]2(O)[C@]1(C)[C@H](OC(=O)c1ccc(O)cc1)C[C@@H]1[C@@]3(C)CC[C@H](OC(=O)/C=C/c4ccc([N+](=O)[O-])cc4)CC3=CC[C@]12O	Toxic	inactive	
COc1cc(/C=C/C(=O)O[C@H]2CC[C@@]3(C)C(=CC[C@]4(O)[C@@H]3C[C@H]3O[C@H](C)[C@]5(OC(=O)/C=C/c6ccccc6)CC[C@@]4(O)[C@]35C)C2)cc(OC)c1OC	Toxic	inactive	
CC(=O)[C@]1(O)CC[C@@]2(O)[C@]1(C)[C@H](OC(=O)c1ccccc1)C[C@@H]1[C@@]3(C)CC[C@H](O)CC3=CC[C@]12O			inhibition [3]: inactive; inhibition [4]: inactive
CC(=O)[C@]1(O)CC[C@@]2(O)[C@]1(C)[C@H](OC(=O)/C=C/c1ccccc1)C[C@@H]1[C@@]3(C)CC[C@H](OC(=O)/C=C/c4ccc([N+](=O)[O-])cc4)CC3=CC[C@]12O	Toxic	inactive	
C[C@@H](OC(=O)c1cccnc1)[C@]1(O)CC[C@@]2(O)[C@]1(C)[C@H](OC(=O)/C=C/c1ccccc1)C[C@@H]1[C@@]3(C)CC[C@H](OC(=O)c4ccccc4)CC3=CC[C@]12O			EC50 [5]: 11.1 µM; EC10 [6]: > 10 µM; CC10 [7]: > 10 µM
CC(=O)[C@]1(OC(=O)c2ccc(Cl)nc2)CC[C@@]2(O)[C@]1(C)[C@H](OC(=O)c1ccc(O)cc1)C[C@@H]1[C@@]3(C)CC[C@H](OC(=O)c4ccc(Cl)nc4)CC3=CC[C@]12O	Toxic	inactive	
CC(=O)[C@]1(O)CC[C@@]2(O)[C@]1(C)[C@H](OC(=O)/C=C(\C)C(C)C)C[C@@H]1[C@@]3(C)CCC(OC(=O)CCl)CC3=CC[C@]12O (stereo not given in full)	Toxic	inactive	
CC(=O)[C@]1(O)CC[C@]23OC(C)(C)O[C@]24CC=C2C[C@@H](O)CC[C@]2(C)[C@H]4C[C@@H](OC(=O)c2ccc(O)cc2)[C@@]31C	Toxic	inactive	
C[C@H]1O[C@@H]2C[C@@H]3[C@@]4(C)CC[C@H](OC(=O)/C=C/c5ccc([N+](=O)[O-])cc5)CC4=CC[C@@]3(O)[C@@]3(O)CC[C@]1(OC(=O)/C=C/c1ccccc1)[C@@]23C	Toxic	inactive	
CC(=O)[C@]1(O)CC[C@@]2(O)[C@]1(C)[C@H](OC(=O)c1ccc(O)cc1)C[C@@H]1[C@@]3(C)CC[C@H](Br)CC3=CC[C@]12O	Toxic	inactive	
CC(=O)[C@]1(OS(C)(=O)=O)CC[C@@]2(O)[C@]1(C)[C@H](OC(=O)c1ccc(O)cc1)C[C@@H]1[C@@]3(C)CC[C@H](OS(C)(=O)=O)CC3=CC[C@]12O	Toxic	inactive	
CC(=O)[C@]1(OC(=O)c2ccc([N+](=O)[O-])cc2)CC[C@@]2(O)[C@]1(C)[C@H](OC(=O)c1ccc(O)cc1)C[C@@H]1[C@@]3(C)CC[C@H](OC(=O)c4ccc([N+](=O)[O-])cc4)CC3=CC[C@]12O	Toxic	inactive	
C[C@H]1O[C@@H]2C[C@@H]3[C@@]4(C)CC[C@H](O)CC4=CC[C@@]3(O)[C@@]3(O)CC[C@]1(OC(=O)/C=C/c1ccccc1)[C@@]23C	Toxic	inactive	
CC(=O)[C@]1(O)CC[C@@]2(O)[C@]1(C)[C@H](OC(=O)c1ccc(O)cc1)C[C@@H]1[C@@]3(C)CCC(=O)CC3=CC[C@]12O	Toxic	inactive	
C[C@@H](OC(=O)c1cccnc1)[C@]1(O)CC[C@@]2(O)[C@]1(C)[C@H](OC(=O)/C=C/c1ccccc1)C[C@@H]1[C@@]3(C)C=CC(=O)C=C3C=C[C@]12O			EC50 [5]: 6.35 µM; EC10 [6]: > 10 µM; CC10 [7]: > 10 µM
CC(=O)O[C@H]1CC[C@@]2(C)C(=CC[C@]3(O)[C@@H]2C[C@@H](OC(=O)c2ccc(O)cc2)[C@@]2(C)[C@]3(O)CC[C@@]2(O)C(C)=O)C1			inhibition [3]: inactive; inhibition [4]: inactive
CC(=O)[C@]1(OC(=O)c2ccccc2I)CC[C@@]2(O)[C@]1(C)[C@H](OC(=O)c1ccc(O)cc1)C[C@@H]1[C@@]3(C)CC[C@H](OC(=O)c4ccccc4I)CC3=CC[C@]12O	Toxic	inactive	inhibition [3]: inactive; inhibition [4]: inactive

Structure (SMILES)	Activity [1]	inhibition [2]	further results
CCC(=O)O[C@H]1CC[C@@]2(C)C(=CC[C@]3(O)[C@@H]2C[C@@H](OC(=O)c2ccc(O)cc2)[C@@]2(C)[C@]3(O)CC[C@@]2(OC(=O)CC)C(C)=O)C1	Toxic	inactive	
CC(=O)[C@]1(OC(=O)c2cccc3ccccc23)CC[C@@]2(O)[C@]1(C)[C@H](OC(=O)c1ccc(O)cc1)C[C@@H]1[C@@]3(C)CC[C@H](OC(=O)c4cccc5ccccc45)CC3=CC[C@]12O	Toxic	inactive	
CC(=O)O[C@H]1CC[C@@]2(C)C(=CC[C@]3(O)[C@@H]2C[C@@H](OC(=O)/C=C/c2ccccc2)[C@@]2(C)[C@]3(O)CC[C@@]2(O)C(C)=O)C1	Toxic	inactive	
COc1cc(/C=C/C(=O)O[C@H]2CC[C@@]3(C)C(=CC[C@]4(O)[C@@H]3C[C@@H](OC(=O)/C=C/c3ccccc3)[C@@]3(C)[C@]4(O)CC[C@@]3(O)C(C)=O)C2)cc(OC)c1OC	Toxic	inactive	
CC(=O)[C@]1(O)CC[C@@]2(O)[C@]1(C)[C@H](OC(=O)/C=C(\C)C(C)C)C[C@@H]1[C@@]3(C)CC[C@H](Cl)CC3=CC[C@]12O			EC50 [5]: 12 µM; EC10 [6]: > 10 µM; CC10 [7]: > 10 µM
CC(=O)[C@]1(O)CC[C@@]2(O)[C@]1(C)[C@H](OC(=O)/C=C(\C)C(C)C)C[C@@H]1[C@@]3(C)CC[C@H](OC(=O)/C=C/c4ccccc4)CC3=CC[C@]12O			inhibition [3]: inactive; inhibition [4]: inactive
CC(=O)[C@]1(O)CC[C@@]2(O)[C@]1(C)[C@H](OC(=O)c1ccc(O)cc1)C[C@@H]1[C@@]3(C)CC[C@H](O)CC3=CC[C@]12O	Toxic	inactive	
CC(O)[C@]1(O)CC[C@@]2(O)[C@]1(C)[C@H](OC(=O)c1ccc(O)cc1)C[C@@H]1[C@@]3(C)CC[C@H](O)CC3=CC[C@]12O (stereo not given in full)	Toxic	inactive	
CC(=O)[C@]1(O)CC[C@@]2(O)[C@]1(C)[C@H](OC(=O)/C=C/c1ccccc1)C[C@@H]1[C@@]3(C)CC[C@H](O)CC3=CC[C@]12O	Toxic	inactive	
C[C@H]1O[C@@H]2C[C@@H]3[C@@]4(C)CC[C@H](OC(=O)/C=C/c5ccccc5)CC4=CC[C@@]3(O)[C@@]3(O)CC[C@]1(OC(=O)/C=C/c1ccccc1)[C@@]23C	Toxic	inactive	
COc1ccc(/C=C/C(=O)O[C@H]2CC[C@@]3(C)C(=CC[C@]4(O)[C@@H]3C[C@@H](OC(=O)/C=C/c3ccccc3)[C@@]3(C)[C@]4(O)CC[C@@]3(O)C(C)=O)C2)cc1	Toxic	inactive	
C[C@@H](OC(=O)c1cccnc1)[C@]1(O)CC[C@@]2(O)[C@]1(C)[C@H](OC(=O)/C=C/c1ccccc1)C[C@@H]1[C@@]3(C)CC[C@H](OC(=O)/C=C/c4ccc([N+](=O)[O-])cc4)CC3=CC[C@]12O			EC50 [5]: 14 µM; EC10 [6]: > 10 µM; CC10 [7]: > 10 µM
CC(=O)[C@]1(O)CC[C@@]2(O)[C@]1(C)[C@H](OC(=O)/C=C(\C)C(C)C)C[C@@H]1[C@@]3(C)CC[C@H](OC(=O)c4ccc(Cl)nc4)CC3=CC[C@]12O			inhibition [3]: inactive; inhibition [4]: inactive
CC(=O)[C@]1(O)CC[C@@]2(O)[C@]1(C)[C@H](OC(=O)/C=C(\C)C(C)C)C[C@@H]1[C@@]3(C)CC[C@H](O)CC3=CC[C@]12O [CAUDATIN]	Toxic	inactive	
COc1ccc(/C=C/C(=O)O[C@H]2CC[C@@]3(C)C(=CC[C@]4(O)[C@@H]3C[C@H]3O[C@H](C)[C@]5(OC(=O)/C=C/c6ccccc6)CC[C@@]4(O)[C@]35C)C2)cc1	Toxic	inactive	
COc1cc(/C=C/C(=O)O[C@H]2CC[C@@]3(C)C(=CC[C@]4(O)[C@@H]3C[C@@H](OC(=O)c3ccc(O)cc3)[C@@]3(C)[C@]4(O)CC[C@@]3(OC(=O)/C=C/c3cc(OC)c(OC)c(OC)c3)C(C)=O)C2)cc(OC)c1OC	Toxic	inactive	
CC(=O)[C@]1(O)CC[C@@]2(O)[C@]1(C)[C@H](OC(=O)/C=C(\C)C(C)C)C[C@@H]1[C@@]3(C)CCC(=O)CC3=CC[C@]12O			EC50 [5]: 11.7 µM; EC10 [6]: > 10 µM; EC10 [7]: > 10 µM
